Source: ChEMBL document CHEMBL4422621, “Novel chalcone and flavone derivatives as selective and dual inhibitors of the transport proteins ABCB1 and ABCG2” (Eur J Med Chem, 2019)

Legend:
ABCG2 (BCRP) [1] = target: T1, ABCG2 (BCRP) (Homo sapiens, UniProt Q9UNQ0); assay: (§1) Inhibition of ABCG2 (unknown origin) expressed in MDCK II BCRP cells assessed as effect on heophorbide A accumulation at 5 to 10 uM after 120 mins by flow cytometric analysis relative to control; format: cell-based; conditions: MDCK II BCRP cells expressing ABCG2, probe pheophorbide A
T1 sequence (Q9UNQ0 whole entry): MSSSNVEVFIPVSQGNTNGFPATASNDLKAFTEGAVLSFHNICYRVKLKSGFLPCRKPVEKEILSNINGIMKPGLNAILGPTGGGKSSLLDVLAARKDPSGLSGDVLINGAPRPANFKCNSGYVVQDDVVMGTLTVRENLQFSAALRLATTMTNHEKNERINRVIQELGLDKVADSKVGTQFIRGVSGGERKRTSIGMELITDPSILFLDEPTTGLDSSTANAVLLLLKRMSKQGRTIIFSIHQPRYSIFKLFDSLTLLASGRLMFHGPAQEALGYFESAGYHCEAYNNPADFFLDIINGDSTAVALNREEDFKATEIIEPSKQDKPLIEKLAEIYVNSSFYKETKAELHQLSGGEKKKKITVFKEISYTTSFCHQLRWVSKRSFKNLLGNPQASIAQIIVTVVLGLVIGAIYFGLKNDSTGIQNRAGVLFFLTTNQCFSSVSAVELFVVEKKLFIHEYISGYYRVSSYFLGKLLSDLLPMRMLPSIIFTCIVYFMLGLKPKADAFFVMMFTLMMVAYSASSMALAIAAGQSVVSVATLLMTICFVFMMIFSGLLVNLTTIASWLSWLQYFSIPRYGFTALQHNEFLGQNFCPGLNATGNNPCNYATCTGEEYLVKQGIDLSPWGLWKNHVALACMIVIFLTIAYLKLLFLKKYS

[2] = target: T2, ATP-dependent translocase ABCB1 (Homo sapiens, UniProt P08183); assay: (§2) Inhibition of ABCB1 in human A2780/ADR cells preincubated for 30 mins followed by calcein AM addition and measured every 60 secs for 1 hr by fluorescence assay; format: cell-based
[3] = target: T3, Broad substrate specificity ATP-binding cassette transporter ABCG2 (Homo sapiens, UniProt Q9UNQ0); assay: Inhibition of ABCG2 (unknown origin) expressed in MDCK II BCRP cells assessed as effect on pheophorbide A accumulation after 120 mins by flow cytometric analysis; format: cell-based
T3 sequence (Q9UNQ0 whole entry): T1 sequence (Q9UNQ0 whole entry)

[4] = target: T4, Multidrug resistance-associated protein 1 (Homo sapiens, UniProt P33527); assay: Inhibition of ABCC1 in human […] cells at 5 to 10 uM preincubated for 30 mins followed by calcein AM addition and measured every 60 secs for 1 hr by fluorescence assay; format: cell-based
[5] = Growth inhibition of MDCK2 cells expressing BCRP (unknown origin) after 72 hrs by MTT assay; format: ADME, cell-based, Canis lupus familiaris, MDCK-II; conditions: dog
[6] = Growth inhibition of MDCK2 cells after 72 hrs by MTT assay; format: cell-based, Canis lupus familiaris, MDCK-II; conditions: dog
[7] = target: T2, ATP-dependent translocase ABCB1; assay: Inhibition of ABCB1 in human A2780/ADR cells at 5 to 10 uM preincubated for 30 mins followed by calcein AM addition and measured every 60 secs for 1 hr by fluorescence assay; format: cell-based
ABCG2 (BCRP) [8] = assay: Therapeutic index, ratio of GI50 for MDCK2 cells expressing BCRP (unknown origin) to EC50 for ABCG2 (unknown origin) co-expressed in MDCK2 cells expressing BCRP (unknown origin); format: toxicity, cell-based; conditions: dog
[9] = Growth inhibition of human A2780/ADR cells after 72 hrs by MTT assay; format: cell-based
[10] = Growth inhibition of human A2780 cells after 72 hrs by MTT assay; format: cell-based
ABCB1 (P-gp) [11] = assay: Therapeutic index, ratio of GI50 for human A2780/ADR cells to EC50 for ABCB1 in human A2780/ADR cells; format: toxicity, cell-based
[12] = target: T3, Broad substrate specificity ATP-binding cassette transporter ABCG2; assay: as §1; format: cell-based; conditions: 2 h
[13] = target: T4, Multidrug resistance-associated protein 1; assay: Inhibition of ABCC1 in human […] cells preincubated for 30 mins followed by calcein AM addition and measured every 60 secs for 1 hr by fluorescence assay; format: cell-based
ABCB1 (P-gp) [14] = target: ABCB1 (P-gp) (Homo sapiens, UniProt P08183); assay: as §2; format: cell-based; conditions: human, A2780/ADR cells, probe calcein AM; read-out: Imax
ABCB1 (P-gp) (Homo sapiens, UniProt P08183), sequence (P08183 whole entry): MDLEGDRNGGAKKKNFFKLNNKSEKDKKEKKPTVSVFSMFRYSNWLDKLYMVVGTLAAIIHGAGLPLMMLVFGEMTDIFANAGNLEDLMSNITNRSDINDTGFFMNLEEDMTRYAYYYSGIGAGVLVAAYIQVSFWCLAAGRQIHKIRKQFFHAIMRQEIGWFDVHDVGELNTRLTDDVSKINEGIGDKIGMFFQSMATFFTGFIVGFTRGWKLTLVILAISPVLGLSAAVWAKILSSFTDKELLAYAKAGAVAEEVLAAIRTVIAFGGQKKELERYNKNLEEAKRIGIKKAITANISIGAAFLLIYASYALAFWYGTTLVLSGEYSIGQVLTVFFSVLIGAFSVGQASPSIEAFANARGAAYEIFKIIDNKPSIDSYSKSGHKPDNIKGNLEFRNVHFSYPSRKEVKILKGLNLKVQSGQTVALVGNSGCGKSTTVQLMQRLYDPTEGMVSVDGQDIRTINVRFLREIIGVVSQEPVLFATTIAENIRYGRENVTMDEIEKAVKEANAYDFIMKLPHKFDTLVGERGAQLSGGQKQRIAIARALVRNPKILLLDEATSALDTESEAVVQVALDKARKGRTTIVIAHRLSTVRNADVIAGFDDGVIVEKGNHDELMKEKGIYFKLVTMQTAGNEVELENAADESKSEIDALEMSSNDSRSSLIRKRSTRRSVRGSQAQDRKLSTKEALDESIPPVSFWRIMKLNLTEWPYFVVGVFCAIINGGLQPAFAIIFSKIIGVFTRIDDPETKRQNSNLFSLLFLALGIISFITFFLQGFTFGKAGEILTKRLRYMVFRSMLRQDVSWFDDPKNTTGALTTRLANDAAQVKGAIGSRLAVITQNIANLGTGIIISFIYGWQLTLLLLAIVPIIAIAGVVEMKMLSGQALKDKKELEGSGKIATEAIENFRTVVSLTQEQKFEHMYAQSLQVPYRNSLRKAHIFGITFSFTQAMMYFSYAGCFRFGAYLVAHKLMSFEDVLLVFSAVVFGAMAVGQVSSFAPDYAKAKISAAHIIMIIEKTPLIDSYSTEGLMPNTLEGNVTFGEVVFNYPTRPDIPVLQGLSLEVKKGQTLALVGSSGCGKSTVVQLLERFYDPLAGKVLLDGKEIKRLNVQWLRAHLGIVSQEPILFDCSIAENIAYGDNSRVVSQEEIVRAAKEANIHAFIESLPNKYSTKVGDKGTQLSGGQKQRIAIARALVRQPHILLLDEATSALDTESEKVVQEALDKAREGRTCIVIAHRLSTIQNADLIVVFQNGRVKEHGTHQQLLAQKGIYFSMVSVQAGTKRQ

T4 sequence (P33527 whole entry): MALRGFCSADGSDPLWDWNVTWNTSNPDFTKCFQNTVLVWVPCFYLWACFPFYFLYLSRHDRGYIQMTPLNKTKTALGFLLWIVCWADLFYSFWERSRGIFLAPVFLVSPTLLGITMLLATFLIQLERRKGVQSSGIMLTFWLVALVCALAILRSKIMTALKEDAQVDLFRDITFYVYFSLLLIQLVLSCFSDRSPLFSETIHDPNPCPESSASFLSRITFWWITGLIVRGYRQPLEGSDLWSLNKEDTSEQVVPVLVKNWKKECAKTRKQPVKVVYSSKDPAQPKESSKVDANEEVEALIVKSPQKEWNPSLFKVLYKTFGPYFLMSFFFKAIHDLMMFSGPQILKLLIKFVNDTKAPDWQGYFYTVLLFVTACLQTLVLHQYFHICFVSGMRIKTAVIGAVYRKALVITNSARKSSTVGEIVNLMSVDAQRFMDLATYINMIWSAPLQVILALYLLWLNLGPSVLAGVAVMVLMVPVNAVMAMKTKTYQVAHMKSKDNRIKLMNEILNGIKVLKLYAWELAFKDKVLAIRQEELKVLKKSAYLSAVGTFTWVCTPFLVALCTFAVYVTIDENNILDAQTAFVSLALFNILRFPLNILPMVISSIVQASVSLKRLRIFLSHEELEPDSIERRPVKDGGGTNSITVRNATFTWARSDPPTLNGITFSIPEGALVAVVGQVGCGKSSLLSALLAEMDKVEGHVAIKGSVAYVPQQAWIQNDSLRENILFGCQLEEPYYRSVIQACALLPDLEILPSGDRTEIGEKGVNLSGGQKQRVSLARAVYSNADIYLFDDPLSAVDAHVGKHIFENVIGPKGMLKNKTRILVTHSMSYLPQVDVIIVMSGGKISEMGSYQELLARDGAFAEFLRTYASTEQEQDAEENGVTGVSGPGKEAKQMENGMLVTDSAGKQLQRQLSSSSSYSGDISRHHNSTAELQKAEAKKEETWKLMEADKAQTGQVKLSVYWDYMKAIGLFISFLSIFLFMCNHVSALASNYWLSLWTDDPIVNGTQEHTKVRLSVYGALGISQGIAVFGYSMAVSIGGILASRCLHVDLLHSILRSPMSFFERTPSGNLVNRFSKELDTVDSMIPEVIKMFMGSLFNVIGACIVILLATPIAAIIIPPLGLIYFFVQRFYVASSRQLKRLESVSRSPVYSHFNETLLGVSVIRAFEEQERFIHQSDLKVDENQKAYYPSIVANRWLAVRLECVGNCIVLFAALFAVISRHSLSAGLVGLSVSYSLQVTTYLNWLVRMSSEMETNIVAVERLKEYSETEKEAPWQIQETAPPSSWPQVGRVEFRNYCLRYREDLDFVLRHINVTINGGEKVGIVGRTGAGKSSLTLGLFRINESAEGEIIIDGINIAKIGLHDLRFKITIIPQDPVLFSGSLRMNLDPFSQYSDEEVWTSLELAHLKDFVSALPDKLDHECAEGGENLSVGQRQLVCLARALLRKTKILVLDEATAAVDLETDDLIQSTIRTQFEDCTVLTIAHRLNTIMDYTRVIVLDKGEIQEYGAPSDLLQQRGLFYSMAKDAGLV
T2 sequence (P08183 whole entry): as the sequence (P08183 whole entry) above

| Structure (SMILES) | inhibition at 2 h (ABCG2 (BCRP) [1]) [%] | IC50 [2] [µM] | IC50 [3] [µM] | inhibition (INH) [4] | inhibition (INH) [7] | inhibition (INH) [12] | IC50 [13] [µM] | Emax at 1 h (ABCB1 (P-gp) [14]) [%] | GI50 at 72 h [5] [µM] | GI50 at 72 h [6] [µM] | selectivity ratio (ABCG2 (BCRP) [8]) | GI50 at 72 h [9] [µM] | GI50 at 72 h [10] [µM] | selectivity ratio (ABCB1 (P-gp) [11]) |
| --- | --- | --- | --- | --- | --- | --- | --- | --- | --- | --- | --- | --- | --- | --- |
| COc1cc(/C=C/C(=O)c2cccc(OCC(=O)Nc3ccc4c(c3)COC4=O)c2)cc(OC)c1OC | ≥ 25 | 11.7 | 9.93 |  |  |  |  |  |  |  |  |  |  |  |
| COc1cc(C(=O)/C=C/c2cc(OC)c(OC)c(OC)c2)ccc1O | ≥ 25 |  | 1.97 | Not Active | Not Active |  |  |  | 9.38 | 7.56 | 4.8 |  |  |  |
| CCCOc1ccc(/C=C/C(=O)c2ccc(O)cc2)cc1 | ≥ 25 |  | 4.74 | Not Active | Not Active |  |  |  | 28.5 | 31.1 | 6 |  |  |  |
| COc1ccc(NC(=O)COc2ccc(C(=O)/C=C/c3cc(OC)c(OC)c(OC)c3)cc2)cc1OC | ≥ 25 |  | 3.37 |  |  |  | 12.5 |  | 27.7 | 18.9 | 8.2 |  |  |  |
| COc1cccc(/C=C/C(=O)c2ccc(OCC(=O)Nc3ccc(OC)c(OC)c3)cc2)c1 | ≥ 25 |  | 3.58 |  |  |  |  |  | 36.7 | 33.2 | 10.3 |  |  |  |

Further lines, with some results ahead:

| inhibition at 2 h (ABCG2 (BCRP) [1]) [%] | IC50 [2] [µM] | IC50 [3] [µM] | inhibition (INH) [4] | inhibition (INH) [7] | inhibition (INH) [12] | IC50 [13] [µM] | Emax at 1 h (ABCB1 (P-gp) [14]) [%] | Structure (SMILES) | GI50 at 72 h [5] [µM] | GI50 at 72 h [6] [µM] | selectivity ratio (ABCG2 (BCRP) [8]) | GI50 at 72 h [9] [µM] | GI50 at 72 h [10] [µM] | selectivity ratio (ABCB1 (P-gp) [11]) |
| --- | --- | --- | --- | --- | --- | --- | --- | --- | --- | --- | --- | --- | --- | --- |
| ≥ 25 | 5.43 | 3.75 |  |  |  |  |  | COc1ccc(-c2c(OCC(=O)Nc3cccc4ccccc34)oc3ccccc3c2=O)cc1OC | > 100 | > 100 | > 26.7 | 45.3 | 43.6 | 8.3 |
| ≥ 25 | 5.01 | 2.9 |  |  |  |  |  | O=C(COc1c(-c2ccccc2Cl)oc2ccccc2c1=O)Nc1ccc2c(c1)COC2=O | 56.3 | 67.6 | 19.4 | 69.2 | 61.1 | 13.8 |
|  | 1.89 |  |  |  | Not Active |  |  | Cc1ccc(-c2c(OCC(=O)Nc3cccc4ccccc34)oc3ccccc3c2=O)cc1 |  |  |  | 98.6 | 68.7 | 52.2 |
| ≥ 25 | 1.41 | 5.09 |  |  |  |  | 51 | COc1ccc(-c2c(OCC(=O)Nc3cccc4ccccc34)oc3ccccc3c2=O)cc1 | > 100 | > 100 | > 19.6 |  |  |  |
